Measured values from patent publication US4423063A, “2,4-Dioxo-4-substituted-1-butaoic acid derivatives useful in treating urinary track calcium oxalate lithiasis” (Merck & Co., Inc., priority 1982, dated 1983).

Molecular target: T1, pig liver glycolate oxidase (Sus scrofa, UniProt I3LVF1)
T1 construct: The enzyme was pig liver glycolate oxidase; from tissue; host or cells: pig liver
T1 sequence (I3LVF1 1-370): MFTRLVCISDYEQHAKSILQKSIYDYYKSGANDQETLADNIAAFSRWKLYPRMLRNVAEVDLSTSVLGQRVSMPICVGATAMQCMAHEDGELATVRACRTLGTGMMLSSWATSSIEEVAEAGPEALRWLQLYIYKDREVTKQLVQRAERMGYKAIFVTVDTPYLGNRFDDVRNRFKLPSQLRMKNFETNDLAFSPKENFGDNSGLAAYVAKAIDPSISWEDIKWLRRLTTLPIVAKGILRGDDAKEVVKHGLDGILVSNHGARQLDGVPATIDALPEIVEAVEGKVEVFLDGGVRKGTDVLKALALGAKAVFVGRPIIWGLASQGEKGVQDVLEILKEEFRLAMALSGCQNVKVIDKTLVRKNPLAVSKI
Assay: Glycolate oxidase enzyme inhibition
Assay type: biochemical
Settings: 25° C., 0.10 M phosphate buffer pH 7.0, 3 mM EDTA, 2×10^-4 M sodium glycolate
Experimental: The usefulness of the compounds of the present invention in treating urinary tract, especially renal, calcium oxalate lithiasis, is shown by the ability of those compounds to inhibit the glycolate oxidase enzyme. […] The activity of the enzyme, in turn, was measured by following the rate of reduction of sodium 2,6-dichlorophenol-indophenol by sodium glycolate in the presence of the enzyme. The enzyme was pig liver glycolate oxidase. The reaction was followed spectrophotometrically at 600 nm. The assay was conducted at 25° C. in a 0.10 M phosphate buffer, pH 7.0, containing 3 mM EDTA. Initial substrate concentrations were 5×10^-5 M of sodium 2,6-dichlorophenol-indophenol and 2×10^-4 M of sodium glycolate. Reactions were initiated by the addition of enzyme. Initial rates during the period from 1 to 3 min. after the addition of enzyme were recorded on a Beckman Acta M-VI spectrophotometer. One control was run simultaneously with three test reactions and all initial rates were adjusted to a common control rate. For further details of this procedure, see Randall et al., J. Med. Chem., 22, 6, 612 (1979).

| Compound | IC50 | IC50 (unit inferred) |
| --- | --- | --- |
| O=C(O)C(=O)CC(=O)c1ccc(-c2ccc(S)cc2)cc1 [4-[(4'-Mercapto-1,1'-biphenyl)-4-yl]-2,4-dioxo-1-butanoic acid] | 2100 nM |  |
| CSc1ccc(-c2ccc(C(=O)CC(=O)C(=O)O)cc2)cc1 [4-[(4'-Methylthio-1,1'-biphenyl)-4-yl]-2,4-dioxo-1-butanoic acid] |  | 150 nM |

The remaining compounds from weak to strong by IC50, led by results:

| IC50 | IC50 (unit inferred) | Compound |
| --- | --- | --- |
| 420 nM |  | O=C(O)C(=O)CC(=O)c1ccc(-c2ccc(SCc3ccccc3)cc2)cc1 [4-[[4'-[(Phenylmethyl)thio]-1,1'-biphenyl]-4-yl]-2,4-dioxo-1-butanoic acid] |
| 90 nM |  | O=C(O)C(=O)CC(=O)c1ccc(-c2ccc(SCCc3ccncc3)cc2)cc1 [4-[[4'-[2-(4-Pyridinylethyl)thio]-1,1'-biphenyl]-4-yl]-2,4-dioxo-1-butanoic acid] |
| 62 nM |  | O=C(O)C(=O)CC(=O)c1ccc(-c2ccc(SCC3(O)COc4ccccc4OC3)cc2)cc1 [4-[[4'-[(3,4-dihydro-3-hydroxy-2H-1,5-benzodioxepin-3-yl)methylthio]-1,1'-biphenyl]-4-yl]-2,4-dioxo-1-butanoic acid] |
